Source: ChEMBL document CHEMBL3046224, “Synthesis of novel 2-phenylsulfonylhydrazono-3-(2',3',4',6'-tetra-O-acetyl-beta-d-glucopyranosyl)thiazolidine-4-ones from thiosemicarbazide precursors” (2006)

Assays:
Assay type in all cases: functional
Details in all cases: read-out: GI
[1] = test system: Botryosphaeria berengeriana; experiment: Fungicidal activity against Botryosphaeria berengeriana assessed as growth inhibition at 50 ppm relative to control
Phomopsis asparagi = experiment: Fungicidal activity against Phomopsis asparagi assessed as growth inhibition at 50 ppm relative to control
[2] = test system: Brassica rapa subsp. oleifera; experiment: Herbicidal activity against Brassica rapa subsp. oleifera assessed as growth inhibition at 1.5 kg/ha applied to soil relative to control

Structure (SMILES) | inhibition of growth at 50 ppm [1] [%] | inhibition of growth at 50 ppm (Phomopsis asparagi) [%] | inhibition of growth at 1500 g/ha [2] [%]
CC(=O)OC[C@H]1O[C@@H](NC(=S)NNS(=O)(=O)c2ccc(C)cc2)[C@H](OC(C)=O)[C@@H](OC(C)=O)[C@@H]1OC(C)=O | 30 | 30 | –
CC(=O)OC[C@H]1O[C@@H](N2C(=O)CS/C2=N\NS(=O)(=O)c2ccc(C)cc2)[C@H](OC(C)=O)[C@@H](OC(C)=O)[C@@H]1OC(C)=O | 30 | 30 | 39.8
CC(=O)O[C@@H]1[C@@H](OC(C)=O)[C@H](OC(C)=O)CO[C@H]1NC(=S)NNS(=O)(=O)c1ccccc1 | 30 | 30 | –
